Assay results published in patent US20240197716A1, “TREATMENTS FOR CUSHING'S SYNDROME THAT DO NOT SIGNIFICANTLY AFFECT CARDIAC RHYTHMS” (Corcept Therapeutics Incorporated, priority 2022, published 2024).
Starred links: 1 amine or outer side, 2 acyl side, 3 side chain; linkers in the order of their positions; H or OH if unused. Non-standard residues stand in square brackets, D forms with d. Residues, ends and D or L forms follow the SMILES beside them. Groups on a side chain read outwards from the residue. *: point of attachment. Ethylenediamine = C(CN[*:2])N[*:1]; Hyp = O=C(O)[C@@H]1C[C@@H](O)CN1; Phg = N[C@H](C(=O)O)c1ccccc1; CO = O=C([*:1])[*:2]; Bn = c1ccc(C*)cc1

Tests used:
QT interval = conditions: in vivo; cited from earlier work
[1] = system: cardiac repolarization in healthy volunteers; experiment: Thorough QT/QTc (TQT) study (NCT04795479), cardiodynamic Holter ECG
Source text: These studies included a randomized, partial double-blind, placebo- and positive-controlled, multiple-dose, 4-way crossover, thorough QT/QTc (TQT) study to investigate the effect of relacorilant on cardiac repolarization. These studies measured placebo-corrected change-from-baseline QTcF (ΔΔQTcF); change-from-baseline of QTcF, HR, and PR and QRS intervals (ΔQTcF, ΔHR, ΔPR, and ΔQRS); placebo-corrected change-from-baseline of HR, and PR and QRS intervals (ΔΔHR, ΔΔPR, and ΔΔQRS); categorical outliers for QTcF, HR, and PR and QRS intervals; the frequency of treatment-emergent changes of T-wave morphology and presence of U-waves; PK parameters of relacorilant and its metabolites (CORT125337, CORT125336, and CORT125295) and moxifloxacin; safety profiles, including AEs/SAEs, physical examination, clinical chemistry, hematology, urinalysis, ECG, and vital signs.
A phase 1, randomized, partial double-blind, crossover thorough QT study (NCT04795479) to assess the effect of multiple doses of relacorilant on cardiac repolarization in healthy volunteers. Participants were randomized to dosing sequences to receive relacorilant at therapeutic (400 mg QD, n=25) or supra-therapeutic (800 mg QD, n=28) doses, or placebo (n=29) for 5 days. Moxifloxacin (400 mg single dose, n=28) was used as a positive control.
Each subject received 4 treatments in a randomized sequence during the study period. Each dosing consisted of 8 capsules (except for moxifloxacin on Day 5), including: • Treatment T: Multiple oral doses of 400 mg relacorilant (4 capsules)+placebo for relacorilant (4 capsules) once daily for 5 days; • Treatment ST: Multiple oral doses of 800 mg relacorilant (8 capsules) once daily for 5 days; • Treatment P: Multiple oral doses of placebo for relacorilant (8 capsules) once daily for 5 days; • Treatment M: Multiple oral doses of placebo for relacorilant (8 capsules) once daily for 4 days and a final single oral dose of 400 mg moxifloxacin (one tablet) on Day 5.
In a portion of present study conducted in healthy subjects, a single dose of moxifloxacin (400 mg; Treatment M) on the last day of its respective treatment period was included as a positive control to determine the sensitivity of the study to detect small QTc changes. Relacorilant doses included both a therapeutic dose level (400 mg; Treatment T) and a supra-therapeutic dose level (800 mg; Treatment ST). The study was blinded to subjects, investigator, study staff, and sponsor with respect to relacorilant (Treatments T and ST) and placebo for relacorilant (Treatment P); it was open-labeled for moxifloxacin (Treatment M). Enrolled subjects were randomized to one of twelve (12) dosing sequences to receive 4 different treatments according to the assigned dosing sequence as shown below:
In each period, subjects were admitted to the clinical site in the morning of Day-1 and stayed in the site until the morning of Day 6. In the study periods when subjects were randomized to Treatment T, ST, or P, the applicable study product (400 mg or 800 mg relacorilant or placebo for relacorilant) were taken once daily in the morning for 5 consecutive days. During the dosing period of positive control (Treatment M), placebo for relacorilant were administered on Days 1 to 4 to align with the dosing schedule for the other three treatments and moxifloxacin were administered in an open-labeled manner as a single dose in the morning of Day 5. Therefore, the treatment on Days 1 to 4 were double-blinded; it was not known before the morning on Day 5 whether or not a subject was allocated to receive moxifloxacin. Each dosing period (from Periods 2 to 4) was separated from the previous period by a washout period of at least 10 days from Day 6 of the previous period to Day 1 (first dose) of the subsequent period to prevent a carryover effect. The final visit was on Day 6 of Period 4. A safety phone follow-up was scheduled at 7 days (±2 days) post the final visit/early termination (ET) visit.

[2] = Plasma concentrations in TQT study (LC-MS/MS, non-compartmental PK); type: in vivo, human; conditions: human, plasma, oral; 400 mg single dose; read-out: Geometric Mean Cmax
Method: PK analyses were performed using non-compartmental methods to obtain estimates of the following parameters, where possible: […] Day 1: Cmax, Tmax, AUClast, and AUC0-24; Day 5: Cmax, Tmax, Cmin, AUClast, AUC0-tau, Cavg, FI, and AR. For moxifloxacin: Cmax, Tmax, AUClast, and AUC0-24. […] PK blood sampling for Day 1 was completed prior to dosing on Day 2.

NCCCC[C@@H]1NC(=O)[C@@H](Cc2c[nH]c3ccccc23)NC(=O)[C@H](c2ccccc2)NC(=O)[C@@H]2C[C@@H](OC(=O)NCCN)CN2C(=O)[C@H](Cc2ccccc2)NC(=O)[C@H](Cc2ccc(OCc3ccccc3)cc2)NC1=O [pasoreotide] (cyclo([Hyp]([CO-Ethylenediamine])[Phg][dW]KY(Bn)F))
effect on QT interval (literature) (QT interval): associated with QT interval prolongation

COc1c(N2C[C@@H]3CCCN[C@@H]3C2)c(F)cc2c(=O)c(C(=O)O)cn(C3CC3)c12 [moxifloxacin, 1-cyclopropyl-7-[(S,S)-2,8-diazabicyclo[4.3.0]non-8-yl]-6-fluoro-8-methoxy-1,4-dihydro-4-oxo-3 quinoline carboxylic acid, reference compound]
LS mean (90% CI) ΔΔQTcF, peak value ([1]; 400 mg on day 5, 1.5 hours post-dose): 10.7 (7.3, 14.1) msec | QT effect of positive control ([1]; 400 mg single dose): expected QT prolongation | LS mean (90% CI) ΔQTcF ([1]; 400 mg single dose on day 5, 1 hour post-dose): 5.7 (3.3, 8.2) msec | LS mean (90% CI) ΔQTcF, maximum observed value ([1]; 400 mg single dose on day 5, 16 hours post-dose): 9.7 (7.2, 12.2) msec | ΔΔQTcF Estimate (msec) (90% CI), predicted at geometric mean Cmax ([1]; 400 mg single dose, PK/QTc population): 8.90 (5.96, 11.85)^2 msec | lower bound of the 90% CI around the LS mean ΔΔQTcF ([1]; 400 mg, at 4 of the 12 post-dose time points): exceeded 5 msec | Cmax [2]: 1870 ng/mL | effect on QT interval (literature) (QT interval): prolong the QT interval of the electrocardiogram in some patients

CC(=O)N1CCN(c2ccc(OC[C@@H]3CO[C@@](Cn4ccnc4)(c4ccc(Cl)cc4Cl)O3)cc2)CC1 [levoketoconazole]
effect on QT interval (literature) (QT interval): associated with QT interval prolongation

N#Cc1ccc([C@H]2CCc3cncn32)c(F)c1 [osilodrostat]
effect on QT interval (literature) (QT interval): associated with QT interval prolongation
